Reference: patent US8648011B2, “Herbicidal compositions” (Syngenta Crop Protection LLC, priority 2009, dated 2014)

Test system: maize
Test: Glass house test of safening effect on herbicide A, post-emergence application, phytotoxicity in maize
Type: in vivo
Settings: for Phytotoxicity (%): post-emergence, maize, 24 DAA
Procedure: A glass house test was carried out to determine the safening effect of numerous safeners on a compound of Formula (I) with respect to maize. Various herbicidal compositions were applied post-emergence and the observed phytotoxicity in maize assessed 24 days after application (24DAA). A=2-chloro-5-[3,6-dihydro-3-methyl-2,6-dioxo-4-(trifluoromethyl)-1(2H)-pyrimidinyl]-4-fluoro-N-[[methyl(1-methylethyl)amino]sulfonyl]benzamide; B=1-[4-(N-2-methoxybenzoylsulfamoyl)phenyl]-3-methylurea.

[1] = safener 100 g/ha applied with herbicide A 100 g/ha
[2] = safener 250 g/ha applied with herbicide A 250 g/ha

Compound | Phytotoxicity (%) (herbicide A 100 g/ha, no safener) | Phytotoxicity (%) (herbicide A 250 g/ha, no safener) | safening of the 3-phenyluracil herbicide A in maize (in vivo) | Phytotoxicity (%) [1] [%] | Phytotoxicity (%) [2] [%]
CC(C)N(C)S(=O)(=O)NC(=O)c1cc(-n2c(=O)cc(C(F)(F)F)n(C)c2=O)c(F)cc1Cl [A, 2-chloro-5-[3,6-dihydro-3-methyl-2,6-dioxo-4-(trifluoromethyl)-1(2H)-pyrimidinyl]-4-fluoro-N-[[methyl(1-methylethyl)amino]sulfonyl]benzamide] | 25 | 35 |  |  | 
CNC(=O)Nc1ccc(S(=O)(=O)NC(=O)c2ccccc2OC)cc1 [B, 1-[4-(N-2-methoxybenzoylsulfamoyl)phenyl]-3-methylurea] |  |  | surprisingly good safening |  | 
O=C(O)COc1ccc(Cl)c2cccnc12 [Cloquintocet] |  |  |  | 25 | 35
O=C(O)C1=NOC(c2ccccc2)(c2ccccc2)C1 [Isoxadifen] |  |  |  | 28 | 30
CC1(C(=O)O)CC(C(=O)O)=NN1c1ccc(Cl)cc1Cl (stereo not drawn) [Mefenpyr] |  |  |  | 30 | 40
